Experimental data: US20110294892A1, “Use of histone deacetylase inhibitors for the care of Philadephia-negative myeloproliferative syndromes” (priority 2008, published 2011)
Read-outs that look alike come from different tables or passages of the source. One block for each molecule: values may come before it.

Columns and labels:
[1] = system: JAK2^V617F mutated human cell line SET-2; experiment: Cloning efficiency of the human cell line SET-2 in methyl-cellulose; type: cell-based; settings: SET-2, 336 h; for EC50: read-out: EC50 (concentration required to reduce of 50% the number of clones)
Description: For each experimental point 2 Petri dishes were done.

rhHDAC1 = rhHDAC1 (Homo sapiens, UniProt Q13547); experiment: biochemical
Description: Values for rhHDAC1 inhibition are also reported: the enzyme was obtained from BPS Biosciences (cat n. 50001) and the test was carried out using a BIOMOL kit, according to supplier instructions.

[2] = system: patients with JAK2^V617F mutation suffering from myeloproliferative syndromes (PV, ET, IM); experiment: Phase II open clinical study in JAK2V617F-positive Philadelphia-negative myeloproliferative syndromes; type: in vivo, human; settings: 50 mg twice per day
Description: Clinical study of ITF2357 in patients suffering from Philadelphia-negative myeloproliferative syndromes. Design: phase II, open, non-randomized study.
Population in the study: 27 patients with the JAK2^V617F mutation suffering from myeloproliferative syndromes not adequately controlled by the standard pharmacological treatment (hydroxyurea).
Duration of the treatment: up to a maximum of 24 weeks of continual administration.
Secondary objective: to evaluate the effect of the treatment on the mutated JAK2 allele burden by quantitative PCR.

[3] = system: lipopolysaccharide (LPS)-stimulated cultured human peripheral blood mononuclear cells (PBMCs); settings: cited from earlier work
[4] = system: LPS-induced serum TNFα and IFNγ; settings: mice, oral administration of 1.0 to 10 mg/kg; cited from earlier work
[5] = system: stem cells obtained from patients suffering from PV or ET; settings: cited from earlier work

Sequence of rhHDAC1 (Q13547 whole entry): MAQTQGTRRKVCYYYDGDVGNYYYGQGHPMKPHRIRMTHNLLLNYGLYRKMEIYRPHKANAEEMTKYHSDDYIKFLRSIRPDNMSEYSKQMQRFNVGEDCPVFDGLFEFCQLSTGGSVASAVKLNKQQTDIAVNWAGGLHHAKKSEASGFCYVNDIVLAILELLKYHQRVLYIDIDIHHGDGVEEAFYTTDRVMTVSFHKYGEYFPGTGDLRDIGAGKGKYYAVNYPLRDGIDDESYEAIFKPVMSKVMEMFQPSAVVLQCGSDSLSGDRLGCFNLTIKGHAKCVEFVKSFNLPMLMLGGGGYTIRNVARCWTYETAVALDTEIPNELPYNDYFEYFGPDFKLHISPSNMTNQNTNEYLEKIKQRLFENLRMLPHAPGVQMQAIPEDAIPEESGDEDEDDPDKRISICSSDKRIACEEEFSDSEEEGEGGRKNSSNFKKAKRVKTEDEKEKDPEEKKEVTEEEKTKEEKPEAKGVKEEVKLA

SMILES: CC(=O)SCC(=O)c1ccc(NS(=O)(=O)c2ccc(OCCCN(C)C)cc2)nc1 [KD-5170]
- inhibition at 1 µM ([1]; read-out: inhibition of clones formation at 1 μM): < 20%
- IC50 (rhHDAC1): 0.024 µM

- EC50 [1]: 1.82 µM
SMILES: Nc1ccccc1NC(=O)c1ccc(CNC(=O)OCc2cccnc2)cc1 [SNDX-275]

- EC50 [1]: 1.2 µM
SMILES: Nc1ccccc1NC(=O)c1ccc(CNc2nccc(-c3cccnc3)n2)cc1 [MGCD-0103]

- EC50 [1]: 0.028 to 0.054 µM
SMILES: CCN(CC)Cc1ccc2cc(COC(=O)Nc3ccc(C(=O)NO)cc3)ccc2c1 [ITF2357, Diethyl-[6-(4-hydroxycarbamoyl-phenylcarbamoyloxymethyl)-naphthalen-2-ylmethyl]-ammonium chloride]
- volume of the spleen ([2]; 4 to 12 weeks, patients who initially exhibited splenomegaly): significant reduction
- complete or partial response, share of cases ([2]; preliminary data, treatment 4 to 12 weeks, PV, ET or myelofibrosis patients): approximately 60%
- IC50 ([3]; read-out: concentration reducing by 50% the production of interferon-γ (IFNγ)): 0.025 µM
- IC50 ([3]; read-out: concentration reducing by 50% the release of intracellular interleukin (IL)-1α): 0.012 µM
- reduction of LPS-induced serum IFNγ [4]: more than 50%
- reduction of LPS-induced serum TNFα [4]: more than 50%
- concentrations inhibiting the clonogenic activity of stem cells [5]: sub-micromolar
